Patent US20100209345A1, “Fluorinated Ligands for Targeting Peripheral Benzodiazepine Receptors” (Australian Nuclear Science & Technology Organisation, priority 2006, published 2010)

Tests used:
[1] = target: central benzodiazepine receptors; experiment: In vitro binding, [3H]-Flumazenil, brain cortex membrane preparation; conditions: for IC50: [3H]-Flumazenil (2 nM), 25° C., 45 min, read-out: CBR IC50
Description: (§1) Non-specific binding was determined with Flumazenil (20 μM). In both cases, incubations were terminated by rapid filtration through Whatman GF/B glass fibre. Filters were immediately washed 3 times with 5 mL ice-cold 50 mM Tris/HCl at pH 7.4. Filters were counted in a β-scintillation counter (Packard) to measure the amount of bound radioactivity. The IC50 of the compounds for the peripheral benzodiazepine binding site and the central benzodiazepine receptor were calculated using Kell 6 software.

[2] = target: T1, peripheral benzodiazepine receptors (Rattus norvegicus, UniProt P16257); experiment: In vivo blocking / competition of tracer uptake by pre-treatment with PBR and CBR ligands; conditions: rats
T1 construct: high uptake in the tissues which have known PBR sites; from tissue; host or cells: organs of living SD rats (brain and peripheral tissues), in vivo
Description: The criteria for significance were **p<0.01 (highly significant) and *p<0.05 (significant). No stars implies not statistical difference from normals or controls.
The biodistribution of PBR132* was undertaken in SD rats and analysis up to 4 h p.i. in the brain and peripheral tissues was performed. The specificity and selectivity of the tracer were assessed by pre-treatment with PBR and Central benzodiazepine receptor (CBR) specific ligands (1 mg/kg) 5 min prior to injection of PBR132*.
The biodistribution of PBR 147* was performed in SD rats and brain and peripheral tissues were analysised at 15, 30 min, 1, and 4 h p.i. The specificity and selectivity of the tracer was assessed by pre-treatment of the animals with the PBR ligands PK11195 and Ro 5-4864 and with Flumazenil for CBR at 1 mg/kg 5 min prior to injection of PBR 147*
The biodistribution of PBR102* and PBR111* were performed in SD rats and brain and peripheral tissues analysed at 15, 30 min, 1, and 4 h p.i. The specificity and selectivity of the tracers were assessed by pre-treatment with the PBR ligands PK11195 and Ro 5-4864 and with Flumazenil for CBR at 1 mg/kg 5 min prior to injection of the corresponding tracers.
The specificity and selectivity of the tracers were assessed by pre-treatment with the PBR ligands PK11195 and Ro 5-4864 and with Flumazenil for CBR at 1 mg/kg 5 min prior to injection of the corresponding tracers.

[3] = target: T2, peripheral benzodiazepine binding site (Rattus norvegicus, UniProt P16257); experiment: In vitro binding, [3H]-PK11195, kidney membrane preparation; conditions: PBR IC50 (nM), [3H]-PK11195 (2 nM), 4° C., 1 h
T2 construct: diluted kidney membrane preparation (200 μg); from tissue; host or cells: kidney membrane preparation
Description: Non-specific binding was determined with PK11195 (10 μM).
as §1

[4] = Biodistribution of 18F-labelled tracers in rats; type: in vivo; conditions: SD rats; for Biodistribution: Bone / Biodistribution: Kidney / Biodistribution: Olfactory bulbs / Biodistribution: Adrenals: decay correction not stated
How it was run: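 Sprague-Dawley rats received 18F tracer, and brain and peripheral tissues were analysed at 15 and 30 min and 1 and 4 h post-injection. For specificity, rats were pretreated 5 min beforehand with PK11195 or Ro 5-4864 (PBR) or flumazenil (CBR), each at 1 mg/kg.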

For `CN(C(=O)Cc1c(-c2ccc(OCCCF)cc2)nc2c(Cl)cc(Cl)cn12)c1ccccc1` [PBR 147, 2-(2-(4-(3-fluoropropoxy)phenyl)-6,8-dichloroimidazo[1,2-a]pyridin-3-yl)-N-methyl-N-phenylacetamide], the IC50 [1] was 4090 nM, the “Tracer uptake after pre-treatment with PK 11195” value ([2]; PK 11195 1 mg/kg 5 min prior to tracer, PBR-expressing tissues (brain/peripheral organs, adrenals apart)) was “decreased” and the “Tracer uptake in the adrenals after pre-treatment with PK 11195” value ([2]; PK 11195 1 mg/kg 5 min prior to tracer, adrenals) was “increase”. For the same molecule, the “Tracer uptake after pre-treatment with Ro 5-4864” value ([2]; Ro 5-4864 1 mg/kg 5 min prior to tracer, PBR-expressing tissues (brain/peripheral organs, adrenals apart)) was “decreased”, the “Tracer uptake in the adrenals after pre-treatment with Ro 5-4864” value ([2]; Ro 5-4864 1 mg/kg 5 min prior to tracer, adrenals) was “increase” and the “Tracer uptake after pre-treatment with flumazenil (central benzodiazepine ligand)” value ([2]; flumazenil 1 mg/kg 5 min prior to tracer, brain or peripheral organs) was “no effect”. The IC50 [3] was 7.4 nM, the chromatographic logP (LogP HPLC) was 4.31 ± 0.13 and the “Biodistribution: Bone” value ([4]; 15 min) was 1 % ID/g. The “Biodistribution: Kidney” value ([4]; 15 min) was 5 % ID/g, the “Biodistribution: Olfactory bulbs” value ([4]; 15 min) was 0.66 % ID/g and the “Heart uptake maintained throughout the experiment” value ([4]; 15 min to 4 h) was 7%. For the same molecule, the “Biodistribution: Adrenals” value ([4]; 30 min) was 9 % ID/g, the “Biodistribution: Adrenals” value ([4]; 4 hours) was 11 % ID/g and the “Biodistribution: Bone” value ([4]; 4 hours) was 2.9 % ID/g. The “Biodistribution: Kidney” value ([4]; 4 hours) was 3.6 % ID/g, the “Biodistribution: Olfactory bulbs” value ([4]; 4 hours) was 0.26 % ID/g and the “Blood activity level / concentration in the blood over the 4 h study period” value ([4]; throughout 15 min to 4 h) was “significantly lower”.
`CCN(CC)C(=O)Cc1c(-c2ccc(OCCF)cc2)nc2c(Cl)cc(Cl)cn12` [PBR 136, 2-(2-(4-(2-fluoroethoxy)phenyl)-6,8-dichloroimidazo[1,2-a]pyridin-3-yl)-N,N-diethylacetamide] gave an IC50 [1] of 588 nM, an IC50 [3] of 17.6 nM and a chromatographic logP (LogP HPLC) of 2.99 ± 0.09.
In the case of `CCN(CC)C(=O)Cc1c(-c2ccc(OCCCF)cc2)nc2c(Cl)cc(Cl)cn12` [PBR 130, 2-(2-(4-(3-fluoropropoxy)phenyl)-6,8-dichloroimidazo[1,2-a]pyridin-3-yl)-N,N-diethylacetamide], the “CBR, % @ 10^−5M” value ([1]; @ 10^−5M, [3H]-Flumazenil) is reported as 50% @ 10^−5M, the IC50 [1] is reported as greater than 5000 nM and the IC50 [3] is reported as 20 nM. It also gave a chromatographic logP (LogP HPLC) of 3.43 ± 0.1.
`CCCN(CCC)C(=O)Cc1c(-c2ccc(OCCF)cc2)nc2ccc(Cl)cn12` [PBR103, 2-(2-(4-(2-fluoroethoxy)phenyl)-6-chloroimidazo[1,2-a]pyridin-3-yl)-N,N-dipropylacetamide] showed an IC50 [1] of 1840 nM, an IC50 [3] of 51.3 nM and a chromatographic logP (LogP HPLC) of 3.44 ± 0.11.
